Source: paper PMC9424909, “Rutin alleviated acrolein-induced cytotoxicity in Caco-2 and GES-1 cells by forming a cyclic hemiacetal product” (Frontiers in Nutrition, 2022)
Where “and” joins values, the source holds several entries; their conditions need not be identical. Identical values can stand only once. Like-named read-outs stand apart in the source and are kept apart here.

How the values were obtained:
[1] = system: Caco-2 cells; test: cell survival, CCK-8 assay; assay type: cell-based, human; conditions: Caco-2
Protocol: (§1) The Caco-2 cell line and GES-1 cell line were obtained from iCell Bioscience (Shanghai, China). As described by Chai et al. ([40]) with a bit modification, the Caco-2 cells were cultured within a medium composed of DMEM supplemented with 1% (v/v) NEAA, 10% (v/v) FBS, and penicillin and streptomycin (100 U/mL). GES-1 cells were cultivated according to Xu et al. ([41]) with slight modifications as follows: DMEM medium including 1% (v/v) NEAA, 10% (v/v) FBS, and penicillin and streptomycin (100 U/mL). Cells were all maintained in a humidified incubator containing 5% CO2 and 95% air at 37°C.
(§2) The effects of ACR and RAC on cell survival (both Caco-2 and GES-1 cells) were measured by the CCK-8 assay ([41]). Briefly, cells (1 × 10^4 cells/well) were seeded into a 96-well plate and cultivated overnight. […] After cells were rinsed twice with PBS and resuspended in 100 μL of DMEM supplemented with 10% FBS, 10 μL of CCK-8 solution was added into each well and the plate was maintained for 1 h in the incubator. The plate was read at 450 nm on a microplate reader (BioTek, Epoch 2, USA), and all experiments were performed thrice. Cell viability was expressed as a percentage of the control group as shown below:
(§3) Cell viability (%) = A sample/A control × 100%
(§4) Where A sample was the absorbance (Abs) of the cells incubated with different concentrations of sample solutions, and A control was the Abs of the cells incubated without sample solution.

[2] = cell survival, CCK-8 assay; assay type: cell-based, human; conditions: human; for viability at 24 h, 140 µM: incubation 24 h, read-out: cell viability (viable cell number); for IC50 at 48 h: read-out: IC50 (cytotoxicity)
Protocol: as §1, §2, §3, §4

[3] = system: GES-1 cells; test: cell survival, CCK-8 assay; assay type: cell-based, human; conditions: GES-1
Protocol: as §1, §2, §3, §4

[4] = system: Caco-2 cells; test: JC-1 staining, mitochondrial membrane potential (MMP); assay type: cell-based, human; conditions: 24 h
Protocol: as §1
(§5) After incubation with different concentrations of samples, the changes of MMP in Caco-2 and GES-1 cells were measured in accordance with Liu et al., with slight modifications ([43]). In brief, cells (1 × 10^4 cells/well) were exposed to different concentrations of ACR and RAC for 24 h, respectively. Then 500 μL of JC-1 staining solution was added into each well and the plate was further incubated at 37°C for 15 min. Cells were then rinsed twice with 1 mL of staining buffer and resuspended with 500 μL of staining buffer prior to MMP determination in the flow cytometry.

[5] = system: GES-1 cells; test: as above; assay type: cell-based, human; conditions: 24 h
Protocol: as §1, §5

[6] = in vitro simulated oral, gastric and intestinal digestion of RAC (HPLC); assay type: in vitro ADME
Protocol: The simulated oral, gastric, and intestinal digestion experiments of RAC were carried out according to Mamone et al. ([39]) with minor adjustments. One milliliter of RAC (1 mg/mL) was mixed with 4 mL SSF and stirred at 170 rpm for 2 min in lightproof condition to mimic the oral phase digestion. Based on the oral stage, 10 mL of SGF was added and reacted for another 2 h under the same condition to imitate the gastric phase digestion. To investigate the intestinal phase digestion, 20 mL of SIF was further added, and the mixture was stirred for another 2 h after simulated gastric digestion. For each stage, the same volume of deionized water was used in place of the corresponding digestive fluid as the control. At the end of each stage, 0.8 mL of the mixture was withdrawn and diluted with MeOH to 1.0 mL for HPLC analysis.
The standard curve of RAC was prepared as follows: one milligram of RAC was dissolved with MeOH to a final concentration of 1 mg/mL. The above solution was further used to prepare a series of RAC concentrations at 0.02, 0.04, 0.08, 0.2, and 1.0 mg/mL, respectively. The HPLC conditions for the determination of the content of RAC in the digestion mixture and the preparation of the standard curve of RAC were the same as those for the analysis of RAC, except that the detection wavelength was at 358 nm.

[7] = system: Caco-2 cells; test: apoptosis assay, Annexin-V FITC/PI flow cytometry; assay type: cell-based, human; conditions: 24 h
Protocol: as §1
(§6) Cell apoptosis assay was conducted in refer to Abas et al. ([42]) with modifications. In short, cells at a density of 1 × 10^4 cells/well were seeded in 96-well plates and incubated overnight, followed by exposure to different concentrations of ACR and RAC for another 24 h. After that, cells were rinsed twice with PBS, resuspended in 200 μL of Annexin-binding buffer, and finally stained with Annexin-V FITC and PI (5 μL each) for 10 min at 37°C in darkness. After adding 400 μL of Annexin-binding buffer, the signal intensity was measured using a FACSCalibur (Becton Dickinson, CA, USA) flow cytometry within 1 h, and data was analyzed with FlowJo software (Ashland, OR, USA).

[8] = system: GES-1 cells; test: apoptosis assay, Annexin-V FITC/PI flow cytometry; assay type: cell-based, human; conditions: GES-1, 60 μM
Protocol: as §1, §6

[9] = incubating with equal concentrations of ACR for 12 h at 37°C ref 25; cited from earlier work
[10] = set-up: method as in PMID 19743801; conditions: simulated physiological conditions ref 21; cited from earlier work

SMILES: CC1OC(OCC2OC(Oc3c(-c4ccc(O)c(O)c4)oc4c5c(cc(O)c4c3=O)OC(O)CC5)C(O)C(O)C2O)C(O)C(O)C1O (racemic) [RAC]
- viability of RAC-treated cells, fold higher than ACR-treated cells [1]: 10 fold
- viability at 24 h, 140 µM ([2]; Caco-2 cells, Caco-2, 140 μM): > 75%
- IC50 at 48 h ([2]; Caco-2 cells, Caco-2, CCK-8): > 140 µM
- viability at 24 h, 140 µM ([2]; GES-1 cells, GES-1, 140 μM): > 75%
- IC50 at 48 h ([2]; GES-1 cells, GES-1, CCK-8): > 140 µM
- viability of RAC-treated cells, fold higher than ACR-treated cells [3]: 6.5 fold
- ratio of red/green fluorescence intensity ([4]; Caco-2, 20 μM): 17.64 ± 0.69
- ratio of red/green fluorescence intensity ([4]; Caco-2, 40 μM): 15.16 ± 0.59
- ratio of red/green fluorescence intensity ([4]; Caco-2, 60 μM): 9.47 and 9.47 ± 0.37
- ratio of red/green fluorescence intensity ([5]; GES-1, 20 μM): 13.32 ± 0.43
- ratio of red/green fluorescence intensity ([5]; GES-1, 40 μM): 10.59 ± 0.33
- ratio of red/green fluorescence intensity ([5]; GES-1, 60 μM): 6.72 and 6.72 ± 0.30
- The amount of RAC ([6]; Initial): 2.99 ± 0.01 mg
- Decrease of RAC ([6]; SGF 30 min (gastric)): 16.39%
- The amount of RAC ([6]; SGF 30 min (gastric)): 2.50 ± 0.06 mg and 2.50 ± 0.06 a mg
- Decrease of RAC ([6]; SGF 60 min (gastric)): 16.05%
- The amount of RAC ([6]; SGF 60 min (gastric)): 2.51 ± 0.04 a mg
- The content of RAC ([6]; SGF 60 min (gastric)): 0.167 ± 0.0028 mg/mL
- Decrease of RAC ([6]; SGF 90 min (gastric)): 21.07%
- The amount of RAC ([6]; SGF 90 min (gastric)): 2.36 ± 0.04 b mg
- The content of RAC ([6]; SGF 90 min (gastric)): 0.157 ± 0.0029 mg/mL
- Decrease of RAC ([6]; SGF 120 min (gastric)): 24.41%
- The amount of RAC ([6]; SGF 120 min (gastric)): 2.26 ± 0.03 b mg
- Decrease of RAC ([6]; SIF 30 min (intestinal)): 13.38%
- The amount of RAC ([6]; SIF 30 min (intestinal)): 2.59 ± 0.01 a mg
- The content of RAC ([6]; SIF 30 min (intestinal)): 0.074 ± 0.0002 mg/mL
- Decrease of RAC ([6]; SIF 60 min (intestinal)): 14.72%
- The amount of RAC ([6]; SIF 60 min (intestinal)): 2.55 ± 0.01 b mg
- The content of RAC ([6]; SIF 60 min (intestinal)): 0.073 ± 0.0002 mg/mL
- Decrease of RAC ([6]; SIF 90 min (intestinal)): 14.38%
- The amount of RAC ([6]; SIF 90 min (intestinal)): 2.56 ± 0.01 b mg
- The content of RAC ([6]; SIF 90 min (intestinal)): 0.073 ± 0.0002 mg/mL
- Decrease of RAC ([6]; SIF 120 min (intestinal)): 16.39%
- The amount of RAC ([6]; SIF 120 min (intestinal)): 2.50 ± 0.01 mg and 2.50 ± 0.01 c mg
- The content of RAC ([6]; SIF 120 min (intestinal)): 0.072 ± 0.0004 mg/mL
- Decrease of RAC ([6]; SSF 2 min (oral)): 0.33%
- The amount of RAC ([6]; SSF 2 min (oral)): 2.98 ± 0.01 mg
- The content of RAC ([6]; SSF 2 min (oral)): 0.595 ± 0.0018 mg/mL
- apoptotic cells ([7]; Caco-2, 20 μM): 8.3%
- apoptotic cells ([7]; Caco-2, 60 μM): 10.81%
- apoptotic rate, fold below the 60 μM ACR-treated group [8]: 5.4 fold
- apoptotic rate ([8]; 24 h): 12.59%

SMILES: COc1ccc([C@@H]2CC(=O)c3c(O)cc(O)cc3O2)cc1O [hesperetin]
- ACR eliminated [9]: 94.87%

SMILES: O=C(CCc1ccc(O)cc1)c1c(O)cc(O)cc1O [phloretin]
- ACR quenched [10]: more than 99%
